From ChEMBL document CHEMBL1649078, “Novel antiviral C5-substituted pyrimidine acyclic nucleoside phosphonates selected as human thymidylate kinase substrates” (J Med Chem, 2011)
Active and inactive are the calls of the source.

Experiments:
Homo sapiens [1] = organism: Homo sapiens; assay: Activity at human recombinant UCK by Michaelis-Menten equation analysis
Homo sapiens [2] = organism: Homo sapiens; assay: Displacement of MABA-CDP from human recombinant UCK by fluorescence competition assay
Homo sapiens [3] = organism: Homo sapiens; assay: Binding affinity to human recombinant UCK by circular dichroism analysis
[4] = Cytotoxicity against human HEL cells after 3 days; format: cell-based
Human alphaherpesvirus 1 [5] = assay: Antiviral activity against HSV1 KOS infected in human HEL cells assessed as reduction of virus-induced cytopathogenicity after 7 days; format: functional, organism-based; conditions: Human alphaherpesvirus 1, KOS, 168 h
Human alphaherpesvirus 2 = assay: Antiviral activity against HSV2 G infected in human HEL cells assessed as reduction of virus-induced cytopathogenicity after 7 days; format: functional, organism-based; conditions: Human alphaherpesvirus 2, strain G, 168 h
Human alphaherpesvirus 1 [6] = assay: Antiviral activity against acyclovir-resistant thymidine kinase deficient HSV1 KOS infected in human HEL cells assessed as reduction of virus-induced cytopathogenicity after 7 days; format: functional, organism-based; conditions: Human alphaherpesvirus 1, KOS, 168 h
Human betaherpesvirus 5 = assay: Antiviral activity against HCMV AD169/Davis infected in human HEL cells assessed as reduction of virus-induced cytopathogenicity after 7 days; format: functional, organism-based; conditions: Human betaherpesvirus 5, AD169/Davis, 168 h
Human alphaherpesvirus 3 [7] = assay: Antiviral activity against VZV OKA expressing thymidine kinase infected in human HEL cells assessed as reduction of virus-induced cytopathogenicity after 5 days; format: functional, organism-based; conditions: Human alphaherpesvirus 3, OKA, 120 h
Human alphaherpesvirus 3 [8] = assay: Antiviral activity against thymidine kinase-deficient VZV 07/1 infected in human HEL cells assessed as reduction of virus-induced cytopathogenicity after 5 days; format: functional, organism-based; conditions: Human alphaherpesvirus 3, 07/1, HEL, 120 h
Homo sapiens [9] = organism: Homo sapiens; assay: Displacement of Mant-ATP from human recombinant UCK by fluorescence competition assay
[10] = Inhibition of human recombinant UCK by Double reciprocal plot analysis

Compound | Activity (Homo sapiens [1]) | Activity (Homo sapiens [2]) | also measured
Cc1cn(C/C=C/P(=O)(O)O)c(=O)[nH]c1=O | inactive | inactive | –
O=c1ccn(C/C=C/CP(=O)(O)O)c(=O)[nH]1 | inactive | inactive | –
CCOP(=O)(/C=C/Cn1cc(C)c(=O)[nH]c1=O)OCC | inactive | inactive | –
COP(=O)(C/C=C\Cn1ccc(=O)[nH]c1=O)OC | inactive | inactive | –
COP(=O)(C/C=C/Cn1cc(C)c(=O)n(C(=O)c2ccccc2)c1=O)OC | inactive | inactive | –
O=c1[nH]c(=O)n(C/C=C/CCP(=O)(O)O)cc1Br | inactive | inactive | –
COP(=O)(C/C=C\Cn1cc(Br)c(=O)[nH]c1=O)OC | inactive | inactive | –
COP(=O)(C/C=C\Cn1ccc(=O)n(C(=O)c2ccccc2)c1=O)OC | inactive | inactive | –
Nc1ccn([C@H]2C[C@H](O)[C@@H](COP(=O)(O)O)O2)c(=O)n1 | – | – | Activity (Homo sapiens [3]): inactive
CCOP(=O)(CC/C=C/Cn1cc(Cl)c(=O)[nH]c1=O)OCC | inactive | inactive | –
O=c1[nH]c(=O)n(C/C=C/CCP(=O)(O)O)cc1F | inactive | inactive | –
COP(=O)(C/C=C\Cn1cc(C)c(=O)[nH]c1=O)OC | inactive | inactive | –
COP(=O)(C/C=C\Cn1cc(F)c(=O)[nH]c1=O)OC | inactive | inactive | –
CCOP(=O)(CC/C=C/Cn1cc(Cl)c(=O)n(C(=O)c2ccccc2)c1=O)OCC | inactive | inactive | –
CC(C)(C)C(=O)OCOP(=O)(C/C=C\Cn1cc(Br)c(=O)[nH]c1=O)OCOC(=O)C(C)(C)C | inactive | inactive | CC50 at 72 h [4]: 70 µM; MCC at 72 h [4]: > 200 µM; EC50 (Human alphaherpesvirus 1 [5]): > 200 µM; EC50 (Human alphaherpesvirus 2): 45 µM; EC50 (Human alphaherpesvirus 1 [6]): > 200 µM; EC50 (Human betaherpesvirus 5): > 200 µM; EC50 (Human alphaherpesvirus 3 [7]): 97 µM; EC50 (Human alphaherpesvirus 3 [8]): 110 µM
O=c1ccn(C/C=C/CCP(=O)(O)O)c(=O)[nH]1 | inactive | inactive | –
COP(=O)(C/C=C/Cn1cc(F)c(=O)[nH]c1=O)OC | inactive | inactive | –
Nc1nc2c(ncn2COC(CO)CO)c(=O)[nH]1 [GANCICLOVIR] | – | – | CC50 at 72 h [4]: 164 µM; MCC at 72 h [4]: > 100 µM; EC50 (Human alphaherpesvirus 1 [5]): 0.08 µM; EC50 (Human alphaherpesvirus 2): 0.05 µM; EC50 (Human alphaherpesvirus 1 [6]): 3 µM; EC50 (Human betaherpesvirus 5): 5.2 µM
Nc1ccn(C[C@@H](CO)OCP(=O)(O)O)c(=O)n1 [CIDOFOVIR] | – | – | Activity (Homo sapiens [3]): inactive; Activity (Homo sapiens [9]): inactive; CC50 at 72 h [4]: 280 µM; MCC at 72 h [4]: > 250 µM; EC50 (Human alphaherpesvirus 1 [5]): 3.5 µM; EC50 (Human alphaherpesvirus 2): 2 µM; EC50 (Human alphaherpesvirus 1 [6]): 2.5 µM; EC50 (Human betaherpesvirus 5): 1.2 µM; EC50 (Human alphaherpesvirus 3 [7]): 0.044 µM; EC50 (Human alphaherpesvirus 3 [8]): 0.07 µM
CCOP(=O)(CC/C=C/Cn1cc(Br)c(=O)n(C(=O)c2ccccc2)c1=O)OCC | inactive | inactive | –

Compound | Activity (Homo sapiens [1]) | Activity (Homo sapiens [2]) | also measured
Cc1cn(C/C=C\CP(=O)(OCOC(=O)C(C)(C)C)OCOC(=O)C(C)(C)C)c(=O)[nH]c1=O | inactive | inactive | CC50 at 72 h [4]: 35 µM; MCC at 72 h [4]: ≥ 200 µM; EC50 (Human alphaherpesvirus 1 [5]): > 40 µM; EC50 (Human alphaherpesvirus 2): > 40 µM; EC50 (Human alphaherpesvirus 1 [6]): > 40 µM; EC50 (Human betaherpesvirus 5): > 200 µM; EC50 (Human alphaherpesvirus 3 [7]): > 40 µM; EC50 (Human alphaherpesvirus 3 [8]): > 40 µM
COP(=O)(C/C=C\Cn1cc(C)c(=O)n(C(=O)c2ccccc2)c1=O)OC | inactive | inactive | –
COP(=O)(C/C=C\Cn1cc(Cl)c(=O)n(C(=O)c2ccccc2)c1=O)OC | inactive | inactive | –
CCOP(=O)(CC/C=C/Cn1cc(Br)c(=O)[nH]c1=O)OCC | inactive | inactive | –
CCOP(=O)(CC/C=C/Cn1cc(F)c(=O)n(C(=O)c2ccccc2)c1=O)OCC | inactive | inactive | –
CC(C)(C)C(=O)OCOP(=O)(C/C=C/Cn1cc(Br)c(=O)[nH]c1=O)OCOC(=O)C(C)(C)C | inactive | inactive | CC50 at 72 h [4]: 34 µM; MCC at 72 h [4]: 200 µM; EC50 (Human alphaherpesvirus 1 [5]): 20 µM; EC50 (Human alphaherpesvirus 2): 16 µM; EC50 (Human alphaherpesvirus 1 [6]): 19 µM; EC50 (Human betaherpesvirus 5): > 40 µM; EC50 (Human alphaherpesvirus 3 [7]): 20 µM; EC50 (Human alphaherpesvirus 3 [8]): 15 µM
Nc1ncnc2c1ncn2CCOCP(=O)(O)O | – | – | Activity (Homo sapiens [9]): inactive
COP(=O)(C/C=C\Cn1cc(Br)c(=O)n(C(=O)c2ccccc2)c1=O)OC | inactive | inactive | –
O=c1[nH]c(=O)n(C/C=C/P(=O)(O)O)cc1Cl | inactive | inactive | –
COP(=O)(C/C=C/Cn1ccc(=O)[nH]c1=O)OC | inactive | inactive | –
O=c1ccn(C/C=C/P(=O)(O)O)c(=O)[nH]1 | inactive | inactive | –
CCOP(=O)(/C=C/Cn1cc(F)c(=O)[nH]c1=O)OCC | inactive | inactive | –
CCOP(=O)(CC/C=C/Cn1cc(C)c(=O)n(C(=O)c2ccccc2)c1=O)OCC | inactive | inactive | –
Cc1cn(C/C=C/CP(=O)(O)O)c(=O)[nH]c1=O | inactive | inactive | Ki [10]: 1200 µM
Cc1cn(C/C=C/CP(=O)(OCOC(=O)C(C)(C)C)OCOC(=O)C(C)(C)C)c(=O)[nH]c1=O | inactive | inactive | CC50 at 72 h [4]: 35 µM; MCC at 72 h [4]: ≥ 200 µM; EC50 (Human alphaherpesvirus 1 [5]): 3.1 µM; EC50 (Human alphaherpesvirus 2): 6.1 µM; EC50 (Human alphaherpesvirus 1 [6]): 9.2 µM; EC50 (Human betaherpesvirus 5): > 40 µM; EC50 (Human alphaherpesvirus 3 [7]): 0.41 µM; EC50 (Human alphaherpesvirus 3 [8]): 0.19 µM
CCOP(=O)(/C=C/Cn1cc(Br)c(=O)[nH]c1=O)OCC | inactive | inactive | –
CCOP(=O)(CC/C=C/Cn1ccc(=O)n(C(=O)c2ccccc2)c1=O)OCC | inactive | inactive | –
COP(=O)(C/C=C/Cn1cc(Cl)c(=O)[nH]c1=O)OC | inactive | inactive | –
CCOP(=O)(/C=C/Cn1ccc(=O)[nH]c1=O)OCC | inactive | inactive | –
O=c1[nH]c(=O)n(C/C=C/CP(=O)(O)O)cc1F | inactive | inactive | –

Compound | Activity (Homo sapiens [1]) | Activity (Homo sapiens [2]) | also measured
CCOP(=O)(/C=C/Cn1cc(Cl)c(=O)[nH]c1=O)OCC | inactive | inactive | –
O=c1[nH]c(=O)n(C/C=C/P(=O)(O)O)cc1F | inactive | inactive | –
COP(=O)(C/C=C/Cn1cc(Cl)c(=O)n(C(=O)c2ccccc2)c1=O)OC | inactive | inactive | –
Cc1cn(C/C=C/CCP(=O)(O)O)c(=O)[nH]c1=O | inactive | inactive | –
CCOP(=O)(CC/C=C/Cn1cc(F)c(=O)[nH]c1=O)OCC | inactive | inactive | –
O=c1[nH]c(=O)n([C@H]2C[C@H](O)[C@@H](CO)O2)cc1/C=C/Br [BRIVUDINE] | – | – | CC50 at 72 h [4]: > 250 µM; MCC at 72 h [4]: > 250 µM; EC50 (Human alphaherpesvirus 2): 30 µM; EC50 (Human betaherpesvirus 5): > 250 µM; EC50 (Human alphaherpesvirus 3 [7]): 0.012 µM; EC50 (Human alphaherpesvirus 3 [8]): > 100 µM
C[C@H](Cn1cnc2c(N)ncnc21)OCP(=O)(O)O | – | – | Activity (Homo sapiens [9]): inactive
COP(=O)(C/C=C/Cn1cc(C)c(=O)[nH]c1=O)OC | inactive | inactive | –
COP(=O)(C/C=C/Cn1cc(Br)c(=O)n(C(=O)c2ccccc2)c1=O)OC | inactive | inactive | –
CCOP(=O)(CC/C=C/Cn1ccc(=O)[nH]c1=O)OCC | inactive | inactive | –
COP(=O)(C/C=C\Cn1cc(F)c(=O)n(C(=O)c2ccccc2)c1=O)OC | inactive | inactive | –
O=c1[nH]c(=O)n(C/C=C/CP(=O)(O)O)cc1Br | inactive | inactive | –
O=c1[nH]c(=O)n(C/C=C/CCP(=O)(O)O)cc1Cl | inactive | inactive | –
COP(=O)(C/C=C/Cn1cc(Br)c(=O)[nH]c1=O)OC | inactive | inactive | –
COP(=O)(C/C=C/Cn1cc(F)c(=O)n(C(=O)c2ccccc2)c1=O)OC | inactive | inactive | –
COP(=O)(C/C=C/Cn1ccc(=O)n(C(=O)c2ccccc2)c1=O)OC | inactive | inactive | –
O=c1[nH]c(=O)n(C/C=C/P(=O)(O)O)cc1Br | inactive | inactive | –
COP(=O)(C/C=C\Cn1cc(Cl)c(=O)[nH]c1=O)OC | inactive | inactive | –
CCOP(=O)(CC/C=C/Cn1cc(C)c(=O)[nH]c1=O)OCC | inactive | inactive | –
